From article PMC10961714, “Novel chemotype NLRP3 inhibitors that target the CRID3-binding pocket with high potency” (Life Science Alliance, 2024)

How the values were obtained:
NLRP3 = target: T1, NLRP3 (Homo sapiens, UniProt Q96P20); assay: NanoBRET target engagement (tracer displacement) in live HEK293 cells; format: cell-based
T1 construct: full-length NLRP3-Nanoluc fusion protein

carbonic anhydrase II = target: T2, carbonic anhydrase II (Homo sapiens, UniProt P00918); assay: p-NPA esterase activity assay with […] compound; format: biochemical
T2 construct: gene CA2; CA II (C6165, Sigma-Aldrich)

carbonic anhydrase I = target: T3, carbonic anhydrase I (Homo sapiens, UniProt P00915); assay: p-NPA esterase activity assay with […] compound; format: biochemical
T3 construct: gene CA1; recombinant carbonic anhydrase I (C4396, Sigma-Aldrich)
T3 sequence (P00915 2-261): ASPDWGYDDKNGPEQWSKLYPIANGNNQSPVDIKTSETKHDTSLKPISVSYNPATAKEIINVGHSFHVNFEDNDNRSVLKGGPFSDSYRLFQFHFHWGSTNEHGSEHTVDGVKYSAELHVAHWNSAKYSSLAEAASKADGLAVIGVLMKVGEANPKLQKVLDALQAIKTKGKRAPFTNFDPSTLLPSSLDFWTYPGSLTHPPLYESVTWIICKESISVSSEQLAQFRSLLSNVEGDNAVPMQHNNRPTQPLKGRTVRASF

T1 sequence (Q96P20 whole entry, the tested form may be a part): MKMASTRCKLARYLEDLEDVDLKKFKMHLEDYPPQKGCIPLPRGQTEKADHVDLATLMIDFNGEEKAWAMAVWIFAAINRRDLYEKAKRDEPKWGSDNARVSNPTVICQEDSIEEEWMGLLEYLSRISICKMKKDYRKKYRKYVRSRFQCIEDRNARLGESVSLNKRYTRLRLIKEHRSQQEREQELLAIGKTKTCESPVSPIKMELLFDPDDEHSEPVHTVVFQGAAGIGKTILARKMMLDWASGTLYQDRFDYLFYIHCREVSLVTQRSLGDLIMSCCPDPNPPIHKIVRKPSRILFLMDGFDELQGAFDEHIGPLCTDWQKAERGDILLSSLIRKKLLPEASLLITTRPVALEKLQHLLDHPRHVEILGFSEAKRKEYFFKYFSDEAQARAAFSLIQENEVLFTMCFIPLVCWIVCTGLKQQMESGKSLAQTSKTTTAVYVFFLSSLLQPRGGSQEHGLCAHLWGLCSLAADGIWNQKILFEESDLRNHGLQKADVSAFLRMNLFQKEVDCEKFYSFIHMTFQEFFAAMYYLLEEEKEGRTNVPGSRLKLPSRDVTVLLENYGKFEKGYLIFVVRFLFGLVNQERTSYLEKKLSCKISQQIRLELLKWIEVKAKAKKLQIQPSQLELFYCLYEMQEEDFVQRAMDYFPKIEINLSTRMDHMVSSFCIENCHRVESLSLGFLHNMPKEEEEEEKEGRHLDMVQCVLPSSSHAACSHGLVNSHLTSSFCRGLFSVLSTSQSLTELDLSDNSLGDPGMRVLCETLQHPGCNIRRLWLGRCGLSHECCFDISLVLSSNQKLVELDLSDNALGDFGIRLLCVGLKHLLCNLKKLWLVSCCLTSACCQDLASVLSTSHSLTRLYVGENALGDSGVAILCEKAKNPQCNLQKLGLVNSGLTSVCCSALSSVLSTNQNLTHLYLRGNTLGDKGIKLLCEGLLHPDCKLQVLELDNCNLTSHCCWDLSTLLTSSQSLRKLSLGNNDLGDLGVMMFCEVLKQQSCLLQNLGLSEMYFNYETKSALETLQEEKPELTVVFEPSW

IC50 (NLRP3) [nM]	Structure (SMILES)	p-NPA esterase activity assay with 100 μM compound (carbonic anhydrase II)	p-NPA esterase activity assay with 100 μM compound (carbonic anhydrase I)
131	CC(C)c1nn(CC(=O)N[C@@H]2CCCN(CC3CC3)C2)c(=O)c2cc3sc(Cl)cc3n12 [NIC-12]	–	–
–	CC(C)(O)c1coc(S(=O)(=O)NC(=O)Nc2c3c(cc4c2CCC4)CCC3)c1 [CRID3]	We confirmed this off-target activity of CRID3 in our studies	observed significant inhibition of the related enzyme carbonic anhydrase I as well
212	CC(C)(O)c1nn(CC(=O)Nc2ccncn2)c(=O)c2cc3sc(Cl)cc3n12 [NIC-11]	–	–
